US20200197409A1, “HEPATITIS B VIRUS SURFACE ANTIGEN INHIBITOR” (FUJIAN COSUNTER PHARMACEUTICAL CO., LTD., priority 2017, published 2020)
pEC50: −log10 of the molar value.

Columns and labels:
[1] = system: HBsAg; details: read-out: HBsAg EC50; HepG2.2.15 cells, supernatant on the 8th day
Protocol: The HBV DNA content in HepG2.2.15 cells culture supernatant was determined by real-time quantitative qPCR assay (real time-qPCR), and the HBV surface antigen content was determined by enzyme linked immunosorbent assay (ELISA). The inhibitory effect of the compound on HBV was evaluated by the EC50 value of the compound.
(§1) 2.1 Cell Line: HepG2.2.15 Cells
3.1 HepG2.2.15 cells (4×10^4 cells/well) were seeded into a 96-well plate and incubated overnight at 37° C. under 5% CO2.
3.2 On the 2nd day, the compound was diluted into 8 concentrations with 3-fold gradient. The compounds with different concentrations were added into the culture wells in duplicate wells. The final concentration of DMSO in the culture medium was 0.5%, 10 μM ETV was used as a 100%/inhibition control, and 0.5% DMSO was used as a 0% inhibition control.
3.3 On the 5th day, the culture medium was replaced with a fresh medium containing the compound.
3.4 On the 8th day, the culture medium in the culture well was collected, and a part of the sample was taken for ELISA to determine the content of hepatitis B virus S antigen, a part of the sample was taken to extract DNA with a high-throughput DNA purification kit (Qiagen-51162).
3.8 Determination of hepatitis B virus S antigen content by ELISA
50 μL of sample and standard sample were taken and added into a reaction plate respectively, followed by addition of 50 μL of enzyme conjugate into each well, the mixture was shaken and well-mixed, and placed in a bath at 37° C. for 60 minutes. The plate was then washed with washing solution 5 times, followed by addition of 50 μL of illuminating substrate into each well, the mixture was well-mixed and allowed to react at room temperature for 10 minutes in the dark. Chemiluminescence intensity was determined by a ELISA.
Calculation of the percentage of inhibition:% Inh.=(1−value of sample/value of DMSO control)×100
Calculation of EC50: The 50% inhibitory concentration (EC50) value of the compound on HBV was calculated by GraphPad Prism software.

[2] = system: HBV-DNA; experiment: HBV DNA content in HepG2.2.15 cells culture supernatant by real time-qPCR; type: cell-based; details: supernatant on the 8th day
Protocol: as §1
3.6 15 μL of the reaction mixture was added into each well of a 96-well PCR plate, followed by addition of 10 μL of sample DNA or HBV DNA standards into each well.
3.7 PCR reaction conditions: heating at 95° C. for 10 minutes, then denaturation at 95° C. for 15 seconds, extension at 60° C. for 1 minute, a total of 40 cycles.

[3] = system: HBV; experiment: Anti-HBV activity on the hepatitis B virus mouse model (AAV-HBV); type: in vivo, C57BL/6 mice; details: 1 mg/kg, PO, QD
Protocol: The AAV vector-mediated HBV infected mouse model is a fast and efficient HBV model. Using the high hepatotropism of the AAV vector, the recombinant adeno-associated type 8 virus carrying 1.3 copies of the HBV genome (rAAV8-1.3HBV) is injected into the tail vein of mice, which can efficiently introduce the carried 1.3 copy HBV genome into hepatocytes. Due to the characteristics of the AAV viral vector, the vector mediated by it can express for a long time. The AAV/HBV model can continuously replicate HBV DNA and express HBsAg and HBeAg in the liver of the mice.
The anti-HBV efficacy of the test compound in vivo was evaluated by determining the content of HBsAg in the serum of the mice after treatment with the test compound on AAV/HBV mouse mode.
C57BL/6 mice, 10% HP-f-CD as vehicle, reference compound TDF (Tenofovir), test compound, recombinant virus rAAVS-1.3HBV, main reagents of the experiment including QIAamp96 DNA kit and TaqMan® Universal PCR Master Mix, Hepatitis B Virus Surface Antigen Detection Kit, instruments including: centrifuge (Beckman Allegra X-15R), tissue grinder (QIAGEN-Tissue lyser II) and spectrophotometer (Thermo-NANODROP 1000).
a) All mice were orally administered on the 28th day after the virus injection, and the day was set as day 0. Submaxillary blood of all mice was collected for serum collection before administration. The mice were administered once a day for four weeks.
b) Submaxillary blood of all mice was collected for serum collection twice a week, the volume of the blood collected each time was approximately 100 μL.
c) On the 28th day, all mice were euthanized and the blood was collected from the heart for serum collection.
The content of HBsAg in the serum of the mice was determined by ELISA. The experimental procedure refers to the specification of HBsAg ELISA kit.
a) The anti-HBV activity of the test compound on AAV/HBV mice model was evaluated by determining the content of HBsAg in the plasma of the mice.

Compound: CC[C@@H]1COc2cc(OCCCOC)c(Cl)cc2-c2cc(=O)c(C(=O)O)cn21 [Embodiment 1]
- pEC50 [1]: 7.33
- pEC50 [2]: 7.35

Compound: COCCCOc1cc2c(cc1Cl)-c1cc(=O)c(C(=O)O)cn1[C@H](C(C)C)CO2 [Embodiment 2]
- pEC50 [1]: 8.18
- pEC50 [2]: 8.06

Compound: COCCCOc1cc2c(cc1Cl)-c1cc(=O)c(C(=O)O)cn1[C@H](C1CC1)CO2 [Embodiment 3]
- pEC50 [1]: 7.18
- pEC50 [2]: 6.98

Compound: COCCCOc1cc2c(cc1Cl)-c1cc(=O)c(C(=O)O)cn1[C@H](C1CCCC1)CO2 [Embodiment 4]
- pEC50 [1]: 7.18
- pEC50 [2]: 7.95

Compound: CC[C@@H](C)C1COc2cc(OCCCOC)c(Cl)cc2-c2cc(=O)c(C(=O)O)cn21 (some centres unmarked) [Embodiment 5]
- pEC50 [1]: 7.54
- pEC50 [2]: 7.67

Compound: CCSCCOc1cc2c(cc1Cl)-c1cc(=O)c(C(=O)O)cn1[C@H](C(C)C)CO2 [Embodiment 7]
- pEC50 [1]: 7.22
- pEC50 [2]: 7.45

Compound: CSCCOc1cc2c(cc1Cl)-c1cc(=O)c(C(=O)O)cn1[C@H](C(C)C)CO2 [Embodiment 8]
- pEC50 [1]: 7.74
- pEC50 [2]: 7.65

Compound: CC(C)[C@@H]1COc2cc(OCCCSCC(=O)O)c(Cl)cc2-c2cc(=O)c(C(=O)O)cn21 [Embodiment 9]
- pEC50 [1]: 7.65
- pEC50 [2]: 7.79

Compound: CO/N=C/CCOc1cc2c(cc1Cl)-c1cc(=O)c(C(=O)O)cn1[C@H](C(C)C)CO2 [Embodiment 10]
- pEC50 [1]: 8.30
- pEC50 [2]: 8.44

Compound: CNC(=O)OCCCOc1cc2c(cc1Cl)-c1cc(=O)c(C(=O)O)cn1[C@H](C(C)C)CO2 [Embodiment 11]
- pEC50 [1]: 7.81
- pEC50 [2]: 7.85

Compound: CCN(CC)C(=O)CCCOc1cc2c(cc1Cl)-c1cc(=O)c(C(=O)O)cn1[C@H](C(C)C)CO2 [Embodiment 12]
- pEC50 [1]: 7.59
- pEC50 [2]: 7.72

Compound: CC(C)[C@@H]1COc2cc(OCCOCC(F)(F)F)c(Cl)cc2-c2cc(=O)c(C(=O)O)cn21 [Embodiment 13]
- pEC50 [1]: 7.36
- pEC50 [2]: 7.62

Compound: COc1cc2c(cc1Cl)-c1cc(=O)c(C(=O)O)cn1[C@H](C(C)C)CO2 [Embodiment 14]
- pEC50 [1]: 7.64
- pEC50 [2]: 7.63

Compound: CC(C)[C@@H]1COc2cc(OCC3CC3)c(Cl)cc2-c2cc(=O)c(C(=O)O)cn21 [Embodiment 15]
- pEC50 [1]: 7.98
- pEC50 [2]: 8.06

Compound: CC(C)COc1cc2c(cc1Cl)-c1cc(=O)c(C(=O)O)cn1[C@H](C(C)C)CO2 [Embodiment 16]
- pEC50 [1]: 8.01
- pEC50 [2]: 7.94

Compound: CC(C)[C@@H]1COc2cc(OCC3CCOCC3)c(Cl)cc2-c2cc(=O)c(C(=O)O)cn21 [Embodiment 17]
- pEC50 [1]: 8.30
- pEC50 [2]: 8.32

Compound: COCCOc1cc2c(cc1Cl)-c1cc(=O)c(C(=O)O)cn1[C@H](C(C)C)CO2 [Embodiment 18]
- pEC50 [1]: 7.46
- pEC50 [2]: 7.46

Compound: COCCCCOc1cc2c(cc1Cl)-c1cc(=O)c(C(=O)O)cn1[C@H](C(C)C)CO2 [Embodiment 19]
- pEC50 [1]: 8.09
- pEC50 [2]: 7.93

Compound: CC(C)[C@@H]1COc2cc(OCCCN3CCOC3=O)c(Cl)cc2-c2cc(=O)c(C(=O)O)cn21 [Embodiment 20]
- pEC50 [1]: 7.38
- pEC50 [2]: 7.35

Compound: CC(C)[C@@H]1COc2cc(OCCCOC(F)(F)F)c(Cl)cc2-c2cc(=O)c(C(=O)O)cn21 [Embodiment 21]
- pEC50 [1]: 7.59
- pEC50 [2]: 7.63

Compound: CC(=O)CCCOc1cc2c(cc1Cl)-c1cc(=O)c(C(=O)O)cn1[C@H](C(C)C)CO2 [Embodiment 22]
- pEC50 [1]: 7.94
- pEC50 [2]: 7.95

Compound: COC(=O)NCCCOc1cc2c(cc1Cl)-c1cc(=O)c(C(=O)O)cn1[C@H](C(C)C)CO2 [Embodiment 23]
- pEC50 [1]: 7.47
- pEC50 [2]: 7.62

Compound: CC(C)OC(=O)OCOP(=O)(CO[C@H](C)Cn1cnc2c(N)ncnc21)OCOC(=O)OC(C)C.O=C(O)/C=C/C(=O)O [TDF, reference compound]
- HBsAg content in the plasma of the mice ([3]; day 4): 4.56 IU/mL
- HBsAg content in the plasma of the mice ([3]; day 7): 4.59 IU/mL
- HBsAg content in the plasma of the mice ([3]; day 11): 4.66 IU/mL
- HBsAg content in the plasma of the mice ([3]; day 14): 4.50 IU/mL
- HBsAg content in the plasma of the mice ([3]; day 18): 4.61 IU/mL
- HBsAg content in the plasma of the mice ([3]; day 21): 4.52 IU/mL
- HBsAg content in the plasma of the mice ([3]; day 25): 4.33 IU/mL
- HBsAg content in the plasma of the mice ([3]; day 28): 4.34 IU/mL
- HBsAg content in the plasma of the mice ([3]; day −1): 4.59 IU/mL
